Values quoted from earlier work as cited in patent publication US20080069870A1, “Controlled Release Compositions Comprising a Cephalosporin for the Treatment of a Bacterial Infection” (Elan Corporation Pic, priority 2005, published 2008).
Like-named read-outs stand apart in the source and are kept apart here.

Key:
[1] = oral administration, after meals vs before meals

absorption [1]: better after meals than before meals
solubility (in N, N-dimethylformamide): freely soluble
solubility (in diethyl ether): practically insoluble
solubility (in ethanol): sparingly soluble
solubility (in methanol): freely soluble
solubility (in water): only slightly soluble
SMILES: CC/C=C(\C(=O)N[C@@H]1C(=O)N2C(C(=O)OCOC(=O)C(C)(C)C)=C(COC(N)=O)CS[C@H]12)c1csc(N)n1.Cl [CFPN-PI, 2,2-Dimethylpropanoyloxymethyl (6R, 7R)-7-[(Z)-2-(2-aminothiazol-4-yl)pent-2-enylamino]-3-carabmoyloxymethyl-8-oxo-5-thia-1-azabicyclo[4.2.0]oct-2-ene-2-carboxylate monohydrochoride monohydrate]
